Earlier results on one compound are cited in patent publication US7288574B2, “Two-phase oxygenated solution and method of use” (priority 2001, dated 2007).

The conditions of this series: equilibrium with air (pO2=0.21) at 77° F.

For the compound `O=O` [oxygen], the “solubility limit of oxygen in water” value is “approximately 8.3 mg/l”.
